From patent US6977254B2, “Hydroxy cyclohexenyl phenyl carboxamides tocolytic oxytocin receptor antagonists” (Wyeth, priority 2001, dated 2005)

What was measured:
human oxytocin receptor = target: T1, human oxytocin receptor (Homo sapiens, UniProt P30559); experiment: Oxytocin binding in CHO cell membranes expressing human oxytocin receptors ([3H]oxytocin radioligand); conditions: for IC50: value in parentheses, read-out: OT (IC50)
T1 construct: host or cells: CHO cells, stably transfected (pcDNA3.1 vector); membranes
T1 sequence (P30559 1-389): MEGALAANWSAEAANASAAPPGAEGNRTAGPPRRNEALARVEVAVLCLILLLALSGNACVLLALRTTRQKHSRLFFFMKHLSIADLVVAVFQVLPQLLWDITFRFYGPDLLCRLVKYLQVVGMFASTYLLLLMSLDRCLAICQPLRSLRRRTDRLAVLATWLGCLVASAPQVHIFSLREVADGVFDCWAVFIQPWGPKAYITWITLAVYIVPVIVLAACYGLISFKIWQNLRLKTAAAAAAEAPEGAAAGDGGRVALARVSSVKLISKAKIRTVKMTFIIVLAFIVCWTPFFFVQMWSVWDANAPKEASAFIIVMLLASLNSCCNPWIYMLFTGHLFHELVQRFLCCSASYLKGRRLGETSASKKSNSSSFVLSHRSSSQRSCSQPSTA
Excerpt: Oxytocin binding in Chinese Hamster Ovary cell membranes expressing human oxytocin receptors
Chinese Hamster Ovary (CHO) cells stably transfected with the human oxytocin (cf. T. Kimura et al., U.S. Pat. No. 5,466,584 (1995) to Rohto Pharmaceutical Co. Ltd., Osaka, Japan) were obtained from Dr. M. Thibonnier, Case Western Reserve University School of Medicine, Cleveland, Ohio.
A. Passaging and Amplification of Cells:
CHO cells transfected with the human oxytocin receptors obtained from M. Thibonnier (pcDNA3.1 vector) are allowed to grow to confluency (approx. >90%) in T-150 flasks under sterile conditions, in a cell culture medium of F-12 Nutrient Mixture (HAM) with L-glutamine (Gibco Cat. #11765-054) containing 15 mM HEPES (Gibco Cat. #15630-080), 1% antibiotic/antimycotic (add 5 mL 100×, Gibco Cat. #15240-062 per 500 mL F-12), 400 μg/mL of Geneticin (add 4 mL of 50 mg/mL per 500 mL F-12) and 10% Fetal Bovine Serum (Qualified, heat inactivated, Gibco Cat. #16140-063). The medium is removed by aspiration and the cells are washed with 10 mL of Hank's Balanced Salt solution (Gibco Cat. #14175-095). The salt solution is removed by aspiration and the cells trypsinized with 5 mL of trypsin-EDTA (0.05% trypsin, 0.53 mM EDTA-4Na, Gibco Cat. #25300-070) for 1 min The trypsin is removed by aspiration and the cells dislodged by tapping. Cell Culture medium (e.g. 30 mL for 1:30 split) is immediately added and mixed well to inactivate trypsin. 1 mL of detached cells is added to new culture flasks containing fresh Cell Culture medium (e.g. into 25 mL per T-150 flask), and mixed gently. The cells are incubated at 37° C. in 5% CO2. The medium is changed at 3 to 4 days interval (or as appropriate). The cells grow to confluency (approx. >75%-95%) within 7-8 days. All steps are done under sterile conditions.
The cells are washed twice gently with Hank's Balanced Salt solution (eg, use 10 mL per T-150 flask). The excess is removed and the cells bathed for 15-30 min. in an enzyme-free Cell Dissociation Buffer (eg, use 8 mL Hank's Based, Gibco Cat. #13150-016 per T-150 flask) until cells are loosened. The contents are transferred to centrifuge tubes (50 mL size) kept in ice bath. All subsequent steps are done at 4° C. The tubes are centrifuged at 300×g for 15 min (1380 rpm on SORVAL, Model RT6000D, using rotor for 50 mL tubes). The supernatant is discarded and the cells suspended in homogenizing buffer (10 mM Tris-HCl containing 0.25 M sucrose and 1 mM EDTA, pH 7.4) ensuring that the volume of the buffer is about ten times the volume of the cell pellet. The cells are pooled into a centrifuge tube (50 mL) and homogenized with Polytron at setting 6 for 10 sec. The homogenate is transferred into a Potter-Elvjehm homogenizer and homogenized with 3 strokes. The homogenate is centrifuged at 1500×g for 10 min at 4° C. (3100 rpm using SORVAL, model RT6000D, using rotor for 50 mL tubes). The pellet is discarded. The supernatant is centrifuged at 100,000×g for 60 min. at 4° C. (Beckman L8-80M ultracentrifuge; spin at 37,500 rpm with rotor type 70 Ti for 50 mL tubes; 38,000 rpm with type 80Ti for 15 mL tubes; or 35,800 rpm with rotor type 45Ti). The supernantant is discarded and the pellet suspended in 3 to 4 mL of Tris buffer (50 mM TRIS-HCl, pH 7.4). The protein content is estimated by the Bradford or Lowry method. The volume of the membrane suspension is adjusted with the membrane buffer (50 mM Tris-HCl containing 0.1% BSA and 0.1 mM PMSF) to give 3.0 mg/mL (or as appropriate) of protein. The membranes are aliquoted and stored at −70° C.
C. Radioligand Binding Assay:
In wells of a 96-well format microtiter plate, is added 90, 110 or 130 μL (to make up a final volume of 200 μL) of assay buffer containing 50 mM of Tris-HCl (pH 7.4), […], 1 mg % aprotinin, 1 mg % leupeptin, 2 mg % 1,10-phenanthroline, 10 mg % trypsin inhibitor, and 0.1 mM PMSF. The inhibitors are added on the day of the experiment. […]

Question: For `COc1cc(C2=CCCCC2)c(Cl)cc1C(=O)N1Cc2ccc(C(=O)N(C)CC(O)CO)n2Cc2ccccc21` (centres unmarked) [Example 4, 10-(5-Chloro-4-cyclohex-1-en-1-yl-2-methoxybenzoyl)-N-(2,3-dihydroxypropyl)-N-methyl-10,11-dihydro-5H-pyrrolo[2,1-c][1,4]benzodiazepine-3-carboxamide], which melting point is on record?
Answer: 155 to 157 °C

Question: What about the IC50 (human oxytocin receptor) of the same molecule?
Answer: 2.07 nM

Question: Which results are given for `Cc1cc(C(=O)N2Cc3ccc(C(=O)N(C)C[C@H](O)[C@H]4OC(=O)O[C@@H]4[C@H](O)CO)n3Cc3ccccc32)ccc1C1=CCCCC1` [Example 6, 10-(4-Cyclohex-1-en-1-yl-3-methylbenzoyl)-N-((2S)-2-{(4R,5R)-5-[(1R)-1,2-dihydroxyethyl]-2-oxo-1,3-dioxolan-4-yl}-2-hydroxyethyl)-N-methyl-10,11-dihydro-5H-pyrrolo[2,1-c][1,4]benzodiazepine-3-carboxamide]?
Answer: melting point: 166 to 175 °C; IC50 (human oxytocin receptor): 0.96 nM

Question: Which results are given for `Cc1cc(C(=O)N2Cc3ccc(C(=O)N(C)C[C@@H]4OC(=O)O[C@H]4[C@H](O)[C@H]4COC(=O)O4)n3Cc3ccccc32)ccc1C1=CCCCC1` [Example 7, 10-(4-Cyclohex-1-en-1-yl-3-methylbenzoyl)-N-[((4S,5S)-5-{(R)-hydroxy[(4R)-2-oxo-1,3-dioxolan-4-yl]methyl}-2-oxo-1,3-dioxolan-4-yl)methyl]-N-methyl-10,11-dihydro-5H-pyrrolo[2,1-c][1,4]benzodiazepine-3-carboxamide]?
Answer: melting point: 162 to 168 °C; inhibition at 0.1 µM (human oxytocin receptor; 100 nM, value without parentheses, read-out: OT % inhibition @ 100 nM): 99%

Question: With `COC[C@@H](OC)[C@@H](OC)[C@H](OC)[C@H](CN(C)C(=O)c1ccc2n1Cc1ccccc1N(C(=O)c1ccc(C3=CCCCC3)c(C)c1)C2)OC` [Example 8, 10-(4-Cyclohex-1-en-1-yl-3-methylbenzoyl)-N-methyl-N-[(2S,3R,4R,5R)-2,3,4,5,6-pentamethoxyhexyl]-10,11-dihydro-5H-pyrrolo[2,1-c][1,4]benzodiazepine-3-carboxamide] as the molecule, how does the melting point read?
Answer: 68 to 83 °C

Question: What about the IC50 (human oxytocin receptor) of the same molecule?
Answer: 13 nM
